{"source": "patent US20240299294A1", "about": "“TARGETED DELIVERY OF EFFECTIVE THERAPEUTIC MEDICATIONS TO THE RESPIRATORY TRACT” (Amphastar Pharmaceuticals, Inc., priority 2020, published 2024)", "key": {"in vivo [1]": {"assay": "in vivo", "settings": "mouse"}, "[2]": {"assay": "Cell viability (MTT) assay, CC50, Study APS002-1", "assay_type": "cell-based", "settings": "African green monkey, Vero E6-TMPRSS2 cells", "protocol": "In the antiviral cell assay, Vero E6-TMPRSS2 cells were seeded into 96 well plates and grown to 80-90% confluency. Compounds were prepared using an 8-point, half-log (˜3-fold) dilution starting at 100 μM. Vehicle (Placebo) and positive control (Remdesivir) wells were included to control for any influence on cell viability. After one hour, compounds were removed and virus was added at a single concentration (100× Median Tissue Culture Infectious Dose (TCID50)), together with equivalent serial dilutions of test compound. Following infection/treatment, cells were incubated for a further hour. After infection, virus/treatment was removed and an overlay medium was added to the cells, together with equivalent serial dilutions of test compound. Cells were visually inspected daily for the appearance of any cytopathic effect (“CPE”). A cell viability (MTT) assay was performed once CPE was complete."}, "[3]": {"settings": "in vivo"}, "in vivo [4]": {"assay": "in vivo", "settings": "mouse", "protocol": "For the single-dose study, 48 mice were treated with the highest dose level (16 sprays) of Formulation 11. Twelve time points were measured: baseline (within one hour before dosing), 5 min, 15 min, 30 min, 1 h, 2 h, 3 h, 4 h, 6 h, 9 h, 24 h and 48 h post dosing. Each animal was sampled twice at two different time points and four mice per gender were used at each time point.", "remark": "listed apart in the source"}, "in vivo [5]": {"assay": "in vivo", "design": "species or system mice", "settings": "mouse", "protocol": "The breathing tank 400 is a specially designed stainless steel breathing tank, which is used for mice to breathe in aerosolized formulations of the medications described earlier in the Examples. At the start of each treatment session, a specific number of sprays of a medication formulation were sprayed into the pre-cleaned tank. To ensure consistent concentration of test article, a stirring fan installed inside the tank was started at a speed of 400 rpm before the first spray of the test articles (such as, the medications). Thirty seconds after the last spray, eight mice were mounted to the inhalation chamber to breathe in aerosolized formulations of the medications from the breathing tank for a specified duration. Animals were then taken off the breathing tank (defined as the “0” time point post dosing).\nThe purpose of the study is to evaluate the lung delivery characteristics of single dose HCQ inhalation in a mouse model. […] Thirty seconds after the last spray (t=0 minute), eight mice were mounted to the inhalation chamber to breathe the medication aerosol from the breathing tank for 10 minutes.\nMice were euthanized and mice lung samples were collected and homogenated at eight time points of 10′, 30′, 45′, 1 h, 2 h, 3 h, 4 h and 6 h after treatment. Four mice were used at each time point and in total 32 mice were studied."}, "[6]": {"settings": "cited from earlier work"}, "[7]": {"assay": "Dose range and dose response study of HCQ for lung delivery (Example 9)", "settings": "mouse, in vivo, 16 sprays"}, "SARS-CoV-2 virus": {"tested_on": "SARS-CoV-2 virus", "assay": "microbe, parasite or virus in culture", "assay_type": "cell-based", "settings": "Severe acute respiratory syndrome coronavirus 2, VeroE6/TMPRSS2"}, "mice": {"tested_on": "mice", "assay": "5-day repeated-dose local and systemic toxicity study of HCQ inhalation (Example 12)", "assay_type": "in vivo", "protocol": "A total of 200 mice were used, in which 40 mice (male:female=1:1) were assigned to each study arm.\nMice were dosed four sessions a day for 5 days, with 3 hours interval between two consecutive treatment sessions. Each session was a 6-minute nose-only inhalation treatment after spraying the designated articles (4, 8 or 16 sprays) into the 21.5 L breathing tank.\nAfter the treatment, 24 mice (male:female=1:1) were sacrificed on Day 6 (or Day-1 post completion of treatment, PCT Day-1) for acute toxicity evaluation and 16 mice (male:female=1:1) were sacrificed on Day 19 (PCT Day-14) for recovery evaluation.\nStandard local toxicity evaluation items included: (1) general safety including in-life daily observation and body weight measurement; (2) gross macroscopic observation and organ weight measurement; (3) clinical pathology including hematology and blood chemistry tests; and (4) microscopic histopathological examination."}, "[8]": {"assay": "Estimation of HCQ concentration in alveolar lining fluid (ALF) (Example 11)", "settings": "mouse, in vivo, 10 sprays"}}, "note": "Where two headings read alike, the source gives them in different places.", "data": [{"smiles": "CCN(CCO)CCCC(C)Nc1ccnc2cc(Cl)ccc12", "note": "(stereo not drawn) [HCQ, Hydroxychloroquine]", "values": [{"measurement": "half-life", "setting": "in vivo [1]; both", "value": "6 to 8", "unit": "h"}, {"measurement": "half-life", "setting": "in vivo [1]", "value": "4.6 to 7.8", "unit": "h"}, {"measurement": "CC50", "setting": "[2]", "value": "> 100", "unit": "µM"}, {"measurement": "time the delivered medication can be detected in the mouse lungs", "setting": "[3]", "value": "no less than 24 h"}, {"measurement": "half-life", "setting": "in vivo [4]; both", "value": "≥ 4", "unit": "h"}, {"measurement": "Kp", "setting": "in vivo [4]; both, in vivo, 16 sprays", "value": "≥ 25"}, {"measurement": "Kp at 0.083 h", "setting": "in vivo [4]; female, in vivo, 16 sprays", "value": 66.3}, {"measurement": "Kp at 0.25 h", "setting": "in vivo [4]; female, in vivo, 16 sprays", "value": 50.6}, {"measurement": "Kp at 0.5 h", "setting": "in vivo [4]; female, in vivo, 16 sprays", "value": 38}, {"measurement": "Kp at 1 h", "setting": "in vivo [4]; female, in vivo, 16 sprays", "value": 100}, {"measurement": "Kp at 3 h", "setting": "in vivo [4]; female, in vivo, 16 sprays", "value": 193}, {"measurement": "Kp at 24 h", "setting": "in vivo [4]; female, in vivo, 16 sprays", "value": 26.9}, {"measurement": "concentration at 0.083 h", "setting": "in vivo [4]; female, in vivo, 16 sprays", "value": 133, "unit": "ng/mL"}, {"measurement": "concentration at 0.25 h", "setting": "in vivo [4]; female, in vivo, 16 sprays", "value": 89.2, "unit": "ng/mL"}, {"measurement": "concentration at 0.5 h", "setting": "in vivo [4]; female, in vivo, 16 sprays", "value": 93.6, "unit": "ng/mL"}, {"measurement": "concentration at 1 h", "setting": "in vivo [4]; female, in vivo, 16 sprays", "value": 40.2, "unit": "ng/mL"}, {"measurement": "concentration at 3 h", "setting": "in vivo [4]; female, in vivo, 16 sprays", "value": 16.8, "unit": "ng/mL"}, {"measurement": "concentration at 24 h", "setting": "in vivo [4]; female, in vivo, 16 sprays", "value": 12.6, "unit": "ng/mL"}, {"measurement": "Kp at 0.083 h", "setting": "in vivo [4]; male, in vivo, 16 sprays", "value": 58.4}, {"measurement": "Kp at 0.25 h", "setting": "in vivo [4]; male, in vivo, 16 sprays", "value": 51.5}, {"measurement": "Kp at 0.5 h", "setting": "in vivo [4]; male, in vivo, 16 sprays", "value": 85.2}, {"measurement": "Kp at 1 h", "setting": "in vivo [4]; male, in vivo, 16 sprays", "value": 90.9}, {"measurement": "Kp at 3 h", "setting": "in vivo [4]; male, in vivo, 16 sprays", "value": 250}, {"measurement": "Kp at 24 h", "setting": "in vivo [4]; male, in vivo, 16 sprays", "value": 56.5}, {"measurement": "concentration at 0.083 h", "setting": "in vivo [4]; male, in vivo, 16 sprays", "value": 163, "unit": "ng/mL"}, {"measurement": "concentration at 0.25 h", "setting": "in vivo [4]; male, in vivo, 16 sprays", "value": 92, "unit": "ng/mL"}, {"measurement": "concentration at 0.5 h", "setting": "in vivo [4]; male, in vivo, 16 sprays", "value": 55, "unit": "ng/mL"}, {"measurement": "concentration at 1 h", "setting": "in vivo [4]; male, in vivo, 16 sprays", "value": 40.2, "unit": "ng/mL"}, {"measurement": "concentration at 3 h", "setting": "in vivo [4]; male, in vivo, 16 sprays", "value": 13.2, "unit": "ng/mL"}, {"measurement": "concentration at 24 h", "setting": "in vivo [4]; male, in vivo, 16 sprays", "value": 4.9, "unit": "ng/mL"}, {"measurement": "appearance of mice after the treatment", "setting": "in vivo [5]", "value": "appeared healthy and normal"}, {"measurement": "half-life", "setting": "in vivo [5]; inhaled or intranasal", "value": 4.6, "unit": "h"}, {"measurement": "half-life", "setting": "[6]; HCQ oral tablet delivery", "value": 123.5, "unit": "days"}, {"measurement": "share of oral tablet dose distributed to the plasma and ultimately reaching the lungs and alveoli", "setting": "[6]; in vivo, po", "value": "about 0.07%"}, {"measurement": "concentration at 0.083 h", "setting": "[7]; female", "value": 8820, "unit": "ng/g"}, {"measurement": "concentration at 0.25 h", "setting": "[7]; female", "value": 4510, "unit": "ng/g"}, {"measurement": "concentration at 0.5 h", "setting": "[7]; female", "value": 3560, "unit": "ng/g"}, {"measurement": "concentration at 1 h", "setting": "[7]; female", "value": 4040, "unit": "ng/g"}, {"measurement": "concentration at 3 h", "setting": "[7]; female", "value": 3250, "unit": "ng/g"}, {"measurement": "concentration at 24 h", "setting": "[7]; female", "value": 339, "unit": "ng/g"}, {"measurement": "concentration at 0.083 h", "setting": "[7]; male", "value": 9510, "unit": "ng/g"}, {"measurement": "concentration at 0.25 h", "setting": "[7]; male", "value": 4740, "unit": "ng/g"}, {"measurement": "concentration at 0.5 h", "setting": "[7]; male", "value": 4680, "unit": "ng/g"}, {"measurement": "concentration at 1 h", "setting": "[7]; male", "value": 3660, "unit": "ng/g"}, {"measurement": "concentration at 3 h", "setting": "[7]; male", "value": 3300, "unit": "ng/g"}, {"measurement": "concentration at 24 h", "setting": "[7]; male", "value": 277, "unit": "ng/g"}, {"measurement": "EC50", "setting": "SARS-CoV-2 virus; Vero E6-TMPRSS2 cells, virus 100× TCID50, read-out: EC50", "value": 11.3, "unit": "µM"}, {"measurement": "local toxicity, nasal turbinates and larynx", "setting": "mice; Formulation 11, PCT-Day 1", "value": "low incidence of minor changes"}, {"measurement": "histopathological finding in the thymus", "setting": "mice; mouse, in vivo", "value": "minimal to mild tingible body macrophages"}, {"measurement": "local toxicity, histopathological examination of six organs", "setting": "mice; mouse, in vivo", "value": "No dose related abnormalities"}, {"measurement": "concentration at 10 min", "setting": "[8]", "value": 476, "unit": "µM"}, {"measurement": "concentration at 6 h", "setting": "[8]", "value": 188, "unit": "µM"}]}, {"smiles": "CCC(CC)COC(=O)[C@H](C)N[P@](=O)(OC[C@H]1O[C@@](C#N)(c2ccc3c(N)ncnn23)[C@H](O)[C@@H]1O)Oc1ccccc1", "note": "[Remdesivir]", "values": [{"measurement": "CC50", "setting": "[2]", "value": "> 20", "unit": "µM"}, {"measurement": "EC50", "setting": "SARS-CoV-2 virus", "value": 2.35, "unit": "µM"}]}]}
